US12252490B2, “Inhibiting deubiquitinase USP25 and USP28” (Valo Health, Inc., priority 2018, dated 2025)

Target: T1, USP28 (USP28-5(1-1077)-TEV-6*His; LifeSensors) (Homo sapiens, UniProt Q96RU2)
T1 construct: construct USP28 (USP28-5(1-1077)-TEV-6*His; LifeSensors); TEV cleavage site (C); 6xHis (C); purchased LifeSensors
T1 sequence (Q96RU2 1-1077): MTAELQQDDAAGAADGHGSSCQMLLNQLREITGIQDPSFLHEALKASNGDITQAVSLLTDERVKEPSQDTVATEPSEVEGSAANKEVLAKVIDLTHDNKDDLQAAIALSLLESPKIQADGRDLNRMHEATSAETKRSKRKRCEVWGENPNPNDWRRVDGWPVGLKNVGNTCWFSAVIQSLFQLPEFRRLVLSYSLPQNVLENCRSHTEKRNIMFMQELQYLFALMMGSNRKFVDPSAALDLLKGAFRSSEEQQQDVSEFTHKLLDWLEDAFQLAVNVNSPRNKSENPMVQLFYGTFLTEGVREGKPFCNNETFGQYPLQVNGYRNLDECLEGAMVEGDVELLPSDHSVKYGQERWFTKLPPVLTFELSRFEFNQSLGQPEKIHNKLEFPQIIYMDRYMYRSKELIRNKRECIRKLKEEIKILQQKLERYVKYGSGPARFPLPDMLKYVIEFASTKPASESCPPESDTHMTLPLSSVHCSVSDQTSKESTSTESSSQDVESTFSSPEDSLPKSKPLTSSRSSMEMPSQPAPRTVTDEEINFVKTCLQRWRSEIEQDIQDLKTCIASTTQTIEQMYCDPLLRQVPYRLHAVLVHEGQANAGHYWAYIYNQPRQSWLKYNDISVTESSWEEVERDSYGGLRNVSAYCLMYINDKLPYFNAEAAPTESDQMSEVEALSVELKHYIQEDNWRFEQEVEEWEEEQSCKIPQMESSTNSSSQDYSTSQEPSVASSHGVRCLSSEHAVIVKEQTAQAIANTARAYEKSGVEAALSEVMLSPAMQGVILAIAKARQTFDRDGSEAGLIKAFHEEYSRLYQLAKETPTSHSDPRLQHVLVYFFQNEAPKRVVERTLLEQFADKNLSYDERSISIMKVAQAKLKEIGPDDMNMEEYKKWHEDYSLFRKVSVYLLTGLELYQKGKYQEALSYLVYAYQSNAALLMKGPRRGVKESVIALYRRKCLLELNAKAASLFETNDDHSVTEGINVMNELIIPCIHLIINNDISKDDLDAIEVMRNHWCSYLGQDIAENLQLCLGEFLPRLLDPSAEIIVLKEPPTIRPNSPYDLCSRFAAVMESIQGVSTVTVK
Assay: Ubiquitin-Rhodamine 110 Assay for USP28 Activity, Example A-1(b)
Assay type: biochemical
Conditions: 75 pM enzyme, 25 nM Ub-Rh110, 384-well follow-up format
Method: Each assay was performed in a final volume of 20 μL in assay buffer containing 20 mM Tris-HCl (pH 8.0, (1M Tris-HCl, pH 8.0 solution; Corning 46-031-CM)), 2 mM CaCl2 (1M Calcium Chloride solution; Sigma #21114) 2 mM BME (2-Mercaptoethanol; Sigma 63689-25ML-F), 0.01% Prionex ([…] filtered, Sigma #G-0411), and 0.01% Triton X-100. Stock compound solutions were stored at −20° C. as 10 mM in DMSO. Up to 1 month prior to the assay, 2 mM test compounds were pre-dispensed into assay plates (Black, low volume; Corning #3820) and frozen at −20° C. Prestamped assay plates were allowed to come to room temperature on the day of the assay. For the screen, 100 nL of 2 mM was pre-dispensed for a final screening concentration of 10 μM (DMSO(fc)=0.5%). Enzyme (USP28, construct USP28 (USP28-5(1-1077)-TEV-6*His; LifeSensors) concentration and incubation times were optimized for the maximal signal-to-background while maintaining initial velocity conditions at a fixed substrate concentration. The final concentration of the enzyme in the assay was 400 pM. Final substrate (Ub-Rh110; Ubiquitin-Rhodamine 110, R&D Systems #U-555) concentration was 25 nM with [Ub-Rh110]<<Km. 10 μL of 2× enzyme was added to assay plates (pre-stamped with compound) either simultaneously with 2×Ub-Rh110 or preincubated with USP28 40 minutes prior to the addition of 10 μL of 2×Ub-Rh110 to compound plates. Plates were incubated stacked for 90 minutes at room temperature before fluorescence was read on the Envision (Excitation at 485 nm and Emission at 535 nm; Perkin Elmer) or on the PheraSTAR (Excitation at 485 nm and Emission at 535 nm; BMG Labtech).
For follow-up studies, each assay was performed in a final volume of 15 μL in assay buffer containing 20 mM Tris-HCl (pH 8.0, (1M Tris-HCl, pH 8.0 solution; Corning 46-031-CM)), 3 mM BME (2-Mercaptoethanol; Sigma 63689-25ML-F), 0.03% BGG (0.22 μM filtered, Sigma, G7516-25G), and 0.01% Triton X-100 (Sigma, T9284-10L). Nanoliter quantities of either an 8-point or 10-point, 3-fold serial dilution in DMSO was pre-dispensed into assay plates (Perkin Elmer, ProxiPlate-384 F Plus, #) for a final test concentration of either 25 μM to 11 nM or 25 μM to 1.3 nM, respectively. Enzyme USP28, construct USP28 (USP28-5(1-1077)-TEV-6*His; LifeSensors) concentration and incubation times were optimized for the maximal signal-to-background while maintaining initial velocity conditions at a fixed substrate concentration. The final concentration of the enzyme in the assay was 75 pM. Final substrate (Ub-Rh110; Ubiquitin-Rhodamine 110, R&D Systems #U-555) concentration was 25 nM with [Ub-Rh110]<<Km. 5 μL of 2× enzyme was added to assay plates (pre-stamped with compound) preincubated with USP28 for 30 minutes and then 5 μL of 2×Ub-Rh110 was added to assay plates. Plates were incubated stacked for 20 minutes at room temperature before 5 μL of stop solution was added (final concentration of 10 mM citric acid (Sigma, 251275-500G)). Fluorescence was read on the Envision (Excitation at 485 nm and Emission at 535 nm; Perkin Elmer) or on the PheraSTAR (Excitation at 485 nm and Emission at 535 nm; BMG Labtech).
For assay formats Examples A-1a, A-1b, and A-2, data were reported as percent inhibition compared with control wells based on the following equation: % inh=1−((FLU−AveLow)/(AveHigh−AveLow)) where FLU=measured Fluorescence, AveLow=average Fluorescence of no enzyme control (n=16), and AveHigh=average Fluorescence of DMSO control (n=16). IC50 values were determined by curve fitting of the standard 4 parameter logistic fitting algorithm included in the Activity Base software package: IDBS XE Designer Model205. Data is fitted using the Levenburg Marquardt algorithm.

| SMILES | Assay A-1(b) (IC50 range) |
| --- | --- |
| CCn1ccc2cc(C(=O)NCCc3ccc(N4CC5CCC(C4)N5)cc3)cnc21 [Example 1-6, N-(4-(3,8-diazabicyclo[3.2.1]octan-3-yl)phenethyl)-1-ethyl-1H-pyrrolo[2,3-b]pyridine-5-carboxamide] | ++++ (“++++”: 0.001-0.05 μM) |
| O=C(NCCc1ccc(N2CCNCC2)cc1)c1cnc2[nH]ccc2c1 [Example 1-2, N-(4-(piperazin-1-yl)phenethyl)-1H-pyrrolo[2,3-b]pyridine-5-carboxamide] | + (“+”: 2-10 μM) |
| Nc1c(C(=O)NCCc2ccc(N3CCNCC3)cc2)cnc2[nH]ccc12 [Example 1-5, 4-amino-N-(4-(piperazin-1-yl)phenethyl)-1H-pyrrolo[2,3-b]pyridine-5-carboxamide] | + (“+”: 2-10 μM) |
| CCn1ccc2cc(C(=O)NC[C@H](C)c3cc(F)c(N4CCNCC4)cc3F)cnc21 (single isomer, unassigned) [Example 2-2] | + (“+”: 2-10 μM) |
| CC(C)(O)Cn1ccc2cc(C(=O)NCCc3cc(F)c(N4CC5CCC(C4)N5)cc3F)cnc21 [Example 1-9, N-(4-(3,8-diazabicyclo[3.2.1]octan-3-yl)-2,5-difluorophenethyl)-1-(2-hydroxy-2-methylpropyl)-1H-pyrrolo[2,3-b]pyridine-5-carboxamide] | − (“−”: >10 μM) |
| CCn1ccc2cc(C(=O)NC[C@@H](C)c3cc(F)c(N4CC5CCC(C4)N5)cc3F)cnc21 (single isomer, unassigned) [Example 2-4] | ++ (“++”: 0.2-2 μM) |
| CCn1ccc2cc(C(=O)NCCc3ccc(N4CC5CCC(C4)N5)c(F)c3)cnc21 [Example 1-10, N-(4-(3,8-diazabicyclo[3.2.1]octan-3-yl)-3-fluorophenethyl)-1-ethyl-1H-pyrrolo[2,3-b]pyridine-5-carboxamide] | +++ (“+++”: 0.05-0.2 μM) |
| CCn1ccc2cc(C(=O)NC[C@@H](C)c3cc(F)c(N4CC5CCC(C4)N5)cc3F)nnc21 (single isomer, unassigned) [Example 4-3] | ++ (“++”: 0.2-2 μM) |
| CCn1ccc2cc(C(=O)NC[C@H](C)c3cc(F)c(N4CC5CCC(C4)N5)cc3F)nnc21 (single isomer, unassigned) [Example 4-2] | ++ (“++”: 0.2-2 μM) |
| Cn1ccc2cc(C(=O)NCCc3ccc(N4CCNCC4)cc3)cnc21 [Example 1-3, 1-methyl-N-(4-(piperazin-1-yl)phenethyl)-1H-pyrrolo[2,3-b]pyridine-5-carboxamide] | ++ (“++”: 0.2-2 μM) |
| CCn1cc(Cl)c2cc(C(=O)NCCc3cc(F)c(N4CC5CCC(C4)N5)cc3F)nnc21 [Example 4-4, N-(4-(3,8-diazabicyclo[3.2.1]octan-3-yl)-2,5-difluorophenethyl)-5-chloro-7-ethyl-7H-pyrrolo[2,3-c]pyridazine-3-carboxamide] | +++ (“+++”: 0.05-0.2 μM) |
| CCn1ccc2cc(C(=O)NCCc3ccc(N4CCNCC4)cc3)cnc21 [Example 1-4, 1-ethyl-N-(4-(piperazin-1-yl)phenethyl)-1H-pyrrolo[2,3-b]pyridine-5-carboxamide] | +++ (“+++”: 0.05-0.2 μM) |
| CCn1cc(Cl)c2cc(C(=O)NCCc3ccc(N4CCNCC4)cc3)cnc21 [Example 3-1, 3-Chloro-1-ethyl-N-[2-[4-(piperazin-1-yl)phenyl]ethyl]-1H-pyrrolo[2,3-b]pyridine-5-carboxamide] | +++ (“+++”: 0.05-0.2 μM) |
| CCn1ccc2cc(C(=O)NCCc3cc(F)c(N4CC5CCC(C4)N5)cc3F)cnc21 [Example 1-1, N-[2-(4-[3,8-diazabicyclo[3.2.1]octan-3-yl]-2,5-difluorophenyl)ethyl]-1-ethyl-1H-pyrrolo[2,3-b]pyridine-5-carboxamide] | +++ (“+++”: 0.05-0.2 μM) |
| CCn1ccc2cc(C(=O)NCCc3cc(F)c(N4CC5CCC(C4)N5)cc3F)nnc21 [Example 4-1, N-[2-(4-[3,8-diazabicyclo[3.2.1]octan-3-yl]-2,5-difluorophenyl)ethyl]-7-ethyl-7H-pyrrolo[2,3-c]pyridazine-3-carboxamide] | +++ (“+++”: 0.05-0.2 μM) |
| O=C(NCCc1ccc(N2CCNCC2)cc1)c1cnc2[nH]cc(Cl)c2c1 [Example 3-2, 3-chloro-N-(4-(piperazin-1-yl)phenethyl)-1H-pyrrolo[2,3-b]pyridine-5-carboxamide] | + (“+”: 2-10 μM) |
| CCn1ccc2cc(C(=O)NC[C@H](C)c3cc(F)c(N4CC5CCC(C4)N5)cc3F)cnc21 (single isomer, unassigned) [Example 2-3] | ++ (“++”: 0.2-2 μM) |
| CCn1ccc2cc(C(=O)NCCc3cc(F)c(N4CCNCC4)cc3F)cnc21 [Example 1-7, N-(2,5-difluoro-4-(piperazin-1-yl)phenethyl)-1-ethyl-1H-pyrrolo[2,3-b]pyridine-5-carboxamide] | +++ (“+++”: 0.05-0.2 μM) |
| O=C(NCCc1ccc(N2CCNCC2)cc1)c1cnc2c(ccn2CC(F)(F)F)c1 [Example 1-8] | +++ (“+++”: 0.05-0.2 μM) |
| CCn1ccc2cc(C(=O)NC[C@@H](C)c3cc(F)c(N4CCNCC4)cc3F)cnc21 (single isomer, unassigned) [Example 2-1] | ++ (“++”: 0.2-2 μM) |
